# Conditions: rat; liver microsomes; pH 7.4; 15.0 min; 1.0 µM
row,SMILES,half-life [min]
1,CCc1ccccc1-n1c(SCC(=O)Nc2ccc(C)cc2)nc2n[nH]c(C)c2c1=N,1.25
2,Cc1ccc2nc(-c3ccccn3)c(Nc3ccccc3C)n2c1,12.2
3,NC(=O)C1CCN(c2ncc(-c3ccc4c(c3)OCO4)s2)CC1,7.65
4,OC[C@H]1O[C@H](O[C@H]2O[C@H](CO)[C@@H](O)[C@H](O)[C@H]2O)[C@H](O)[C@@H](O)[C@@H]1O,> 30
5,COc1ccc(-c2[nH]nc3ncc(-c4ccc(CO)cc4)nc23)cc1F,11.3
6,Cc1ccc(NC(=O)c2c(N3CCCC3=O)c3cc(C)ccc3n2C)c(C)c1,1.31
7,O=C1CCCC2=C1C(c1ccccc1Br)N=C(Nc1nc3ccccc3o1)N2 (centres undefined),9.6
8,Cc1cccc(CN2CCN(c3ccccn3)CC2)c1,2.4
9,CCCc1ccc(C(=O)NC(=O)c2ccccc2O)cc1,2.37
10,CC(C)(C)c1ccc(-c2csc(N3CCC(C(N)=O)CC3)n2)cc1,13.9
11,COc1ccc(OC)c(-n2c3c(cc(-c4nc(-c5ccc(Cl)cc5)cs4)c2=O)C(=O)CC(C)(C)C3)c1,> 30
12,Cn1nc(-c2ccccc2F)c2cc(C(=O)Nc3cc(F)ccc3F)sc21,26.2
13,OCc1ccc(-c2nn(Cc3ccccc3)c3ccccc23)o1,5.17
14,Cc1ccc(S(=O)(=O)Nc2ccc(C(=O)Nc3nc(-c4ccc(Cl)cc4)cs3)cc2)cc1,16
15,COc1ncc(-c2ccc3c(Nc4cc(Oc5cc(F)cc(F)c5)cc(C(=O)O)c4)c(S(=O)(=O)NC4CC4)cnc3c2)c(OC)n1,9.87
16,COc1ccc(OCc2ccc(-c3nc(C#N)c(NC(C)c4ccccc4)o3)o2)cc1 (centres undefined),4.14
17,c1ccc(CNc2cc3c(cn2)CN(Cc2cccnc2)CCN3)cc1,15
18,O=C(c1nc(-c2ccc(Cl)cc2Cl)c2cnccn12)N1CCOCC1,23.6
19,Cc1cc(Br)ccc1NC(=O)C(NS(=O)(=O)c1cccs1)c1ccccc1 (centres undefined),7.26
20,Cc1cnc(-c2ccccc2C(F)F)nc1NCc1ccc(-n2ccnn2)cc1,21
21,COc1ccc(C2c3c(oc4ccc(Cl)cc4c3=O)C(=O)N2CCCN(C)C)cc1OC (centres undefined),> 30
22,Cc1cc(C)nc(NC(=S)N2CCN(c3ccc4nsnc4c3)CC2)c1,15.2
23,COc1cccc(CNc2ccc(S(=O)(=O)Nc3cccc4ccccc34)cc2)c1O,5.8
24,Cc1ccc(S(=O)(=O)Nc2ccccc2C(=O)Nc2nc(-c3ccc(Cl)cc3)cs2)cc1,8.85
25,Cc1cc2ccccc2n1CC(=O)NC1CCCCC1,2.8
26,O=C(Nc1ncc(Cc2ccc(C(F)(F)F)cc2)s1)c1ncc(-c2ccccc2)[nH]1,> 30

row,SMILES,half-life [min]
1,CN1CCN(C2=Nc3ccccc3Sc3ccc(Cl)cc32)CC1,1.11
2,Cn1c(=O)c2[nH]c(=O)[nH]c2n(C)c1=O,> 30
3,O=S(=O)(Nc1nccs1)c1ccc(NCc2cc(Cl)ccc2O)cc1,11
4,O=C(Cc1ccc(Cl)c(Cl)c1)Nc1ccc(S(=O)(=O)Nc2ccon2)cc1,> 30
5,COc1cccc(CNc2ccc(S(=O)(=O)Nc3ncc(-c4ccccc4)s3)cc2)c1O,> 30
6,CCCNC(=O)[C@H]1O[C@H]1C(=O)N[C@H](C(=O)N1CCC[C@@H]1C(=O)OC)C(C)CC (some centres undefined),> 30
7,Cc1ccc(S(=O)(=O)Nc2cc(Cl)cc(C(=O)Nc3nc(-c4ccccc4)cs3)c2)cc1,22
8,CN1C(=O)c2ccccc2[S@](=O)c2ccc(C(=O)NCc3ccc(Cl)cc3)cc21,15
9,COc1c2c(c3c(c1CCC(=O)O)OC(C)(C)C=C3)OC(C)(C)C=C2,> 30
10,CN1CCN(c2ccc(Nc3nn4c(=O)c5ccccc5nc4s3)cc2)CC1,15.2
11,COc1ccc(OC)c(CN2CCNc3cc(Nc4ccccc4)ncc3C2)c1,2.23
12,O=C(O)Cc1ccc2oc(-c3ccc(NC(=O)/C=C/c4ccc(Br)cc4)c(F)c3)nc2c1,> 30
13,OCCNc1ncnc2c1ncn2[C@@H]1O[C@@H](CO)[C@H](O)[C@@H]1O,> 30
14,O=[S+]([O-])(Nc1ccc(C2CCNCC2)cc1)c1ccc(NCc2ccc(Cl)cc2O)cc1,> 30
15,Fc1ccc(Nc2nc(-c3ccnc(C(F)(F)F)c3)nc3ccccc23)cc1F,> 30
16,COc1c(O)cc2c(c1OC)-c1ccc(SC)c(=O)cc1C(NC(C)=O)CC2 (centres undefined),> 30
17,CN(C)c1cccc(-c2cnc(Nc3cccnc3)c3c2CCO3)c1,5.25
18,CC(C)CC(=O)Nc1n[nH]c2c1CN(C(=O)C1CCN(C)CC1)C2(C)C,> 30
19,CCNC(=O)C[C@@H]1N=C(c2ccc(Cl)cc2)c2cc(OC)ccc2-n2c(C)nnc21,> 30
20,FC(F)(F)c1cccc(N2CCN(C(=S)Nc3ccccn3)CC2)c1,15.5
21,c1ccc2c(Nc3nccs3)nc(-c3ccncc3)nc2c1,6.4
22,COc1ccc(C(=O)NC2CCCc3c2[nH]c2c(Cl)cccc32)cc1OC (centres undefined),22.4
23,NC(=O)C1CCN(c2nc(-c3ccc(C(F)(F)F)cc3)cs2)CC1,5.39
24,Cn1cc(Br)c(C2N=C(Nc3nc4ccccc4o3)NC3=C2C(=O)CCC3)n1 (centres undefined),8.5
25,Fc1ccc(N2CCCN(CC3[C@H]4CNC[C@@H]34)CC2)cc1 (some centres undefined),> 30
26,O=C(O)c1ccc(Nc2nc(-c3cc4ccccc4oc3=O)cs2)cc1O,> 30

row,SMILES,half-life [min]
1,COc1c(C)c2c(c(O)c1C/C=C(\C)CCC(=O)OCCN1CCOCC1)C(=O)OC2,1
2,CC(=O)c1c(C)[nH]c(C(=O)Nc2cccc([S+](=O)([O-])N3CCC(F)(F)CC3)c2)c1C,2.4
3,CC(C)CNc1ncnc2onc(-c3ccc(Cl)cc3)c12,12
4,Cc1ccnc(NC(=S)N2CCN(c3cccc(C(F)(F)F)c3)C[C@@H]2C)c1,7.12
5,CC1=C[C@@H](CN2C(=O)C(C)=C(C)C2=O)[C@H](C(C)C)C[C@H]1Cc1nc2c(C)cccc2[nH]1,1.3
6,CC(C)CC(C)NC(=O)c1noc(-c2ccc[nH]c2=O)n1 (centres undefined),> 30
7,COc1cc(-c2cn(C)c(=O)c3cnccc23)c(OC)cc1CN(C)C,> 30
8,COCCNc1ncnc2onc(-c3ccc(F)cc3)c12,> 30
9,Cc1ccc(S(=O)(=O)NCc2ccccc2)cc1,1
10,Cc1ccc(S(=O)(=O)Nc2cnccc2C(=O)Nc2nc(-c3ccccc3F)cs2)cc1,9.9
11,Cc1noc(/C=C/c2ccccc2F)c1S(=O)(=O)N1CCC(C(=O)Nc2ccc(C#N)cc2)CC1,24.7
12,COc1cccc(CNc2ccc(S(=O)(=O)Nc3ccccn3)cc2)c1O,> 30
13,Cc1noc(C)c1-c1cc(-c2ccc3c(c2)C(=O)NC3)cn2cncc12,> 30
14,Cc1ccc(C(=O)Nc2nc3nc(-c4ccccc4)cc(=O)n3[nH]2)cc1,> 30
15,COc1ccc(NC(=O)c2[nH]c(C)c(C(C)=O)c2C)cc1S(=O)(=O)Nc1cccc(C#N)c1,15
16,Oc1ccc(CNc2ccc(F)cc2F)c2cccnc12,3.19
17,Cn1cncc1[C@@](N)(c1ccc(Cl)cc1)c1ccc2c(c1)c(-c1cccc(Cl)c1)cc(=O)n2C,9.54
18,Cc1ccc(S(=O)(=O)Nc2cnccc2C(=O)Nc2nc(-c3ccc(C)c(C)c3)cs2)cc1,2.1
19,O=C(NCc1cccnc1)c1nc(-c2ccc(Cl)nc2)c2cnccn12,26.6
20,O=C(Nc1ccc(-c2nc3cc(NC(=O)c4ccccc4Cl)ccc3o2)cc1)c1ccccc1Cl,> 30
21,Cc1nnc(-c2ccccc2C(C)C)nc1NCc1ccc(-c2cccnc2)cc1,5.8
22,O=C(Nc1cccc(OC(F)(F)F)c1)c1cc(-c2ccc[nH]2)n[nH]1,20.9
23,Cc1ccc(-c2ccc(CNc3nc(-c4ccccc4C(C)C)nc4ccccc34)cc2)cn1,8.23
24,CC[C@H](CO)Nc1nc(NCc2ccccc2)c2ncn(C(C)C)c2n1,5.51
25,CC(C)COc1ccc(-c2csc(N3CCC(C(N)=O)CC3)n2)cc1,7.23
26,CC(Cc1ccc(O)cc1)NCC(O)c1cc(O)cc(O)c1 (centres undefined),> 30

row,SMILES,half-life [min]
1,COc1ccc(C2=Nc3ccc(Br)cc3C(c3ccccc3)N2CC(=O)NN)cc1 (centres undefined),8.16
2,COc1cccc(-n2ncc3c2CCCC3NC(=O)c2ccccn2)c1 (centres undefined),11
3,CS(=O)(=O)c1ccc2nc(NC(=O)C3CC3)sc2c1,> 30
4,CCC1=Nc2cc(C(=O)NCCCOC)ccc2Sc2ccc(Br)cc21,5.46
5,C=C1C(=O)OC2C1CCC(C)C1(O)C=CC(=O)C21C (centres undefined),> 30
6,CCN1CCN(c2ccc(Nc3ccc(-c4ccc(C(N)=O)cc4)n4ncnc34)cc2)CC1,> 30
7,Clc1cccc(COc2cncc(N3CCNCC3)n2)c1,2.55
8,O=C(c1csnn1)N1CCC2(CCCN(C(c3ccccc3)c3ccccc3)C2)CC1,2.1
9,COC[C@@H]1CN(C(=O)c2nn(C)c3ccccc23)C[C@H]1c1nc(C)no1,25.7
10,O=C1Nc2ccccc2C1Cc1cc(Cl)c(O)c(Cl)c1 (centres undefined),24
11,CCc1ccc(NC(=O)CSC2=Nc3ccccc3C3=NC(CC(=O)NCc4ccc5c(c4)OCO5)C(=O)N23)cc1 (centres undefined),2.86
12,Cc1csc2nc(-c3cccc(NC(=O)c4cccc(F)c4)c3)cn12,3.67
13,CCOC(=O)C1CCN(c2nc(-c3ccc(Br)cc3)cs2)CC1,2.19
14,Cn1cc(C2=C(c3cn(CCCSC(=N)N)c4ccccc34)C(=O)NC2=O)c2ccccc21,4.4
15,COc1ccc(N(C)C(=O)c2cc3c(s2)-c2ccccc2OC3)cc1,7.6
16,c1c[nH]c(C2CCN(c3ncc(-c4ccc5c(c4)OCCCO5)s3)CC2)n1,4.29
17,O=C(NCC1CCN(Cc2cccc(Cl)c2)CC1)Nc1ccc(F)c(Cl)c1,22.7
18,CCc1ccc(-n2nc(C)c3c2NC(=O)CSC3c2ccccc2C)cc1 (centres undefined),2.44
19,COc1cccc(CNc2ccc(S(=O)(=O)Nc3nc4ccccc4[nH]3)cc2)c1O,> 30
20,COc1ccc(O)c(CNc2ccc(S(=O)(=O)Nc3nccs3)cc2)c1,> 30
21,O=C(NCc1ccc(S(=O)(=O)c2cccc(C(F)(F)F)c2)cc1)c1cnc2[nH]ncc2c1,> 30
22,NC(=O)C1CCN(c2nc(-c3ccc4ccccc4c3)cs2)CC1,2.62
23,CN1C(=O)c2ccccc2[S@](=O)c2ccc(C(=O)NCc3ccc(Br)cc3)cc21,13
24,O=C(Nc1ccccc1F)c1nc(S(=O)(=O)Cc2ccccc2F)ncc1Cl,1.49
25,NC(=O)C1CCN(c2nc(-c3ccc4c(c3)OCCCO4)cs2)CC1,6.7
26,C[N+]1([O-])[C@@H]2CC[C@H]1CC(OC(=O)C(CO)c1ccccc1)C2 (some centres undefined),> 30

# From PubChem BioAssay AID1508591
